Assay results from ChEMBL document CHEMBL1140533, “Discovery of 5-HT6 receptor ligands based on virtual HTS” (Bioorg Med Chem Lett, 2007).
Calls of active or inactive are those of the source. The rule behind the calls is not given here.

Assays:
[1] = target: T1, 5-hydroxytryptamine receptor 6 (Homo sapiens, UniProt P50406); assay: Displacement of [3H]LSD from 5HT6 receptor expressed in HEK293 cells at 10 uM; assay type: cell-based
[2] = target: T1, 5-hydroxytryptamine receptor 6; assay: Displacement of [3H]LSD from 5HT6 receptor expressed in HEK293 cells; assay type: cell-based
[3] = target: T2, 5-hydroxytryptamine receptor 2A (Homo sapiens, UniProt P28223); assay: Binding affinity at 5HT2A receptor
T2 sequence (P28223 whole entry): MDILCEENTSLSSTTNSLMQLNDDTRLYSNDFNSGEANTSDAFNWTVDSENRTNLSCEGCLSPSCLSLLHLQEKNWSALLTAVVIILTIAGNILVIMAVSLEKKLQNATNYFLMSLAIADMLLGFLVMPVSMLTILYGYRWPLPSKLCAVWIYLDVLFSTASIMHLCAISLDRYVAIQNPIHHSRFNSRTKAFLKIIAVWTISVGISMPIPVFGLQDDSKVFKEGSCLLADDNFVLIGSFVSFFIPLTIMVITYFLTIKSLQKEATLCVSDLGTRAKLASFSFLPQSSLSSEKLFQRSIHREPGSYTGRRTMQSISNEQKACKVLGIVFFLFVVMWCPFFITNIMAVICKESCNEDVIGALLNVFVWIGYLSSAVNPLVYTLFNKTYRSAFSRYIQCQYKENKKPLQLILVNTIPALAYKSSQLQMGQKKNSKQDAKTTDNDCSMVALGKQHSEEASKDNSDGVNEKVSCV

[4] = target: T3, 5-hydroxytryptamine receptor 2C (Homo sapiens) (UniProt P28335); assay: Binding affinity at 5HT2C receptor at 1 uM
T3 sequence (whole entry): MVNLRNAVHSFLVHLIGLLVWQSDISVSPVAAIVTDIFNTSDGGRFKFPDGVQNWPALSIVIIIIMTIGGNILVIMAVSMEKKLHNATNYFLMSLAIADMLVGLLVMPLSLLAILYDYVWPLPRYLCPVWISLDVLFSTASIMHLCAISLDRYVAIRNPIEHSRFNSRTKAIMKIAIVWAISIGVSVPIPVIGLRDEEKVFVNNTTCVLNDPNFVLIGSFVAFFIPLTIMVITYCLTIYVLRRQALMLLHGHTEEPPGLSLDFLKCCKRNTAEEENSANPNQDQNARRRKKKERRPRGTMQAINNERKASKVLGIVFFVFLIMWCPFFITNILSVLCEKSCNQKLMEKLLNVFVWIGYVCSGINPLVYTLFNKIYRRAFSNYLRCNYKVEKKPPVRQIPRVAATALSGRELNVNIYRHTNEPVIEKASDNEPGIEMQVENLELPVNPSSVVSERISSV

[5] = target: 5-hydroxytryptamine receptor 7 (Homo sapiens) (UniProt P34969); assay: Binding affinity at 5HT7 receptor at 1 uM
Sequence of 5-hydroxytryptamine receptor 7 (Homo sapiens) (P34969 whole entry): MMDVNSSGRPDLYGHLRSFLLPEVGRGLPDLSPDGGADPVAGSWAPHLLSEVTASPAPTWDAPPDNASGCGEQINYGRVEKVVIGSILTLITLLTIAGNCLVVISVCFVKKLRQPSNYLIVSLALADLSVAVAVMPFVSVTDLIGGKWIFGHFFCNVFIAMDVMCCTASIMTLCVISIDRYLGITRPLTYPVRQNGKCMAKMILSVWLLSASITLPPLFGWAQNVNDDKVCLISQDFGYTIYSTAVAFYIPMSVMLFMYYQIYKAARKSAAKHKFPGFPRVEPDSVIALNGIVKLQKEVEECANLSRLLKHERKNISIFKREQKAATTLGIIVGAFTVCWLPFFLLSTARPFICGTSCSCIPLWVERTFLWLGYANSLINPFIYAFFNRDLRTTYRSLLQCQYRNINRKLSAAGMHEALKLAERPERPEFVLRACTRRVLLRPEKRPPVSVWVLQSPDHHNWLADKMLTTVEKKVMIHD

[6] = target: 5-hydroxytryptamine receptor 2B (Homo sapiens) (UniProt P41595); assay: Binding affinity at 5HT2B receptor at 1 uM
Sequence of 5-hydroxytryptamine receptor 2B (Homo sapiens) (P41595 whole entry): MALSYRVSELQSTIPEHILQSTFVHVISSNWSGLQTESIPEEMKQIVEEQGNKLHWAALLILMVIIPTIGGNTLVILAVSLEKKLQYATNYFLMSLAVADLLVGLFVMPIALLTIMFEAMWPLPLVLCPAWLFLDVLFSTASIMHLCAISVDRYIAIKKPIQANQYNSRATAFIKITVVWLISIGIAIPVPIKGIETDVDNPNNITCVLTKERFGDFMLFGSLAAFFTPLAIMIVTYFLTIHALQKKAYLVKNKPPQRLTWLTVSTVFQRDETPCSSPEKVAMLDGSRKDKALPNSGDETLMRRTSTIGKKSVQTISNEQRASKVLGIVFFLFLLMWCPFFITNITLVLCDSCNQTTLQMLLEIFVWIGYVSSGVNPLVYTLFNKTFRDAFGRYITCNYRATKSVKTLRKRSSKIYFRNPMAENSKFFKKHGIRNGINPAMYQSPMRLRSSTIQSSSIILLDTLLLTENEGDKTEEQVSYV

[7] = target: Histamine H1 receptor (Homo sapiens) (UniProt P35367); assay: Binding affinity at histamine H1 receptor at 1 uM
Sequence of Histamine H1 receptor (Homo sapiens) (P35367 whole entry): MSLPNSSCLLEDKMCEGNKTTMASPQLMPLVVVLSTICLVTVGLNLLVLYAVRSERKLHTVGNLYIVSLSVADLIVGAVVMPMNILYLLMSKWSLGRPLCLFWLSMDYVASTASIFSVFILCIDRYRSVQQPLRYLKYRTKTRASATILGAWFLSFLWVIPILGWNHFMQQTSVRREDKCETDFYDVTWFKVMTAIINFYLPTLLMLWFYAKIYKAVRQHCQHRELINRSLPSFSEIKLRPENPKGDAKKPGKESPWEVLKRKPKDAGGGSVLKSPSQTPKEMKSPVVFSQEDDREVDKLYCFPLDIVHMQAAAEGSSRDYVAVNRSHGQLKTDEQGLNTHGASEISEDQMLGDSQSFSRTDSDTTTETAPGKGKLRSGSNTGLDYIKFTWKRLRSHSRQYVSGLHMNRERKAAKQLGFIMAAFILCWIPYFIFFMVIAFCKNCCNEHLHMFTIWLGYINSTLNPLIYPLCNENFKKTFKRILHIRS

[8] = target: T4, 5-hydroxytryptamine receptor 3A (Homo sapiens) (UniProt P46098); assay: Inhibition of 5HT3 receptor at 10 uM
T4 sequence (whole entry): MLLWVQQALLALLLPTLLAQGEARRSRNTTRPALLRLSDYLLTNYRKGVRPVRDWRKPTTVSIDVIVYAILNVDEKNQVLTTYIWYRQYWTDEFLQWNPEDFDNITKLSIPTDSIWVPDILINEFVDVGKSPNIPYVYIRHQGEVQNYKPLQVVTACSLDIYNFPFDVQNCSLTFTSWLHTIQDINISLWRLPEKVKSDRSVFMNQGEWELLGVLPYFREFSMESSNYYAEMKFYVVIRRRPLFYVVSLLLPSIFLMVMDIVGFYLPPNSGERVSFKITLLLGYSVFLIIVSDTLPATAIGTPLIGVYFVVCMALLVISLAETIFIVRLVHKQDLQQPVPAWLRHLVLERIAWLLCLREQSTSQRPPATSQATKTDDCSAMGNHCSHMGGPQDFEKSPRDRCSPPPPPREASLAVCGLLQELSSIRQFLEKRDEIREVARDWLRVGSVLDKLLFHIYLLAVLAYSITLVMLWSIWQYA

[9] = target: 5-hydroxytryptamine receptor 5A (Homo sapiens) (UniProt P47898); assay: Inhibition of 5HT5A receptor at 10 uM
Sequence of 5-hydroxytryptamine receptor 5A (Homo sapiens) (P47898 whole entry): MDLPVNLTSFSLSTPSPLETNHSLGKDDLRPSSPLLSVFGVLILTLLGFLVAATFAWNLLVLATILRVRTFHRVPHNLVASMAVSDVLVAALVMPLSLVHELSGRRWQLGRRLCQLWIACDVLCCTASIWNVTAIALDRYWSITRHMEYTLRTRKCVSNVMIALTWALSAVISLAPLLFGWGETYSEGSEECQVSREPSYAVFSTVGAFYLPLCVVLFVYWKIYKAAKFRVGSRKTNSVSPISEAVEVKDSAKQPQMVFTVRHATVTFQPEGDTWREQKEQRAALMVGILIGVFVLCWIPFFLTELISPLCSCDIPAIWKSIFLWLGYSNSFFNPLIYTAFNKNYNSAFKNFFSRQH

[10] = target: 5-hydroxytryptamine receptor 2B (Homo sapiens) (UniProt P41595); assay: Inhibition of 5HT2B receptor at 10 uM
[11] = target: 5-hydroxytryptamine receptor 1B (Homo sapiens) (UniProt P28222); assay: Inhibition of 5HT1B receptor at 10 uM
Sequence of 5-hydroxytryptamine receptor 1B (Homo sapiens) (P28222 whole entry): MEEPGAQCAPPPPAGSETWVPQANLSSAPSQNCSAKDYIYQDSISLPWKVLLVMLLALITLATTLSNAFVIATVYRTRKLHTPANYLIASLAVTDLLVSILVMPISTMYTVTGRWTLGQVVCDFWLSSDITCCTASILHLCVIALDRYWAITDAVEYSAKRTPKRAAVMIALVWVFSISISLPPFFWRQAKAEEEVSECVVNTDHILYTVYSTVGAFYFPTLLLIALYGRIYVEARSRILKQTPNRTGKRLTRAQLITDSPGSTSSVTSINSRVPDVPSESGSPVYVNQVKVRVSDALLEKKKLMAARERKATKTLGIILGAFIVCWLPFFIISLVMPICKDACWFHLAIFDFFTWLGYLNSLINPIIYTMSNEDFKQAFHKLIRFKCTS

[12] = target: T5, 5-hydroxytryptamine receptor 1A (Homo sapiens) (UniProt P08908); assay: Inhibition of 5HT1A receptor at 10 uM
T5 sequence (whole entry): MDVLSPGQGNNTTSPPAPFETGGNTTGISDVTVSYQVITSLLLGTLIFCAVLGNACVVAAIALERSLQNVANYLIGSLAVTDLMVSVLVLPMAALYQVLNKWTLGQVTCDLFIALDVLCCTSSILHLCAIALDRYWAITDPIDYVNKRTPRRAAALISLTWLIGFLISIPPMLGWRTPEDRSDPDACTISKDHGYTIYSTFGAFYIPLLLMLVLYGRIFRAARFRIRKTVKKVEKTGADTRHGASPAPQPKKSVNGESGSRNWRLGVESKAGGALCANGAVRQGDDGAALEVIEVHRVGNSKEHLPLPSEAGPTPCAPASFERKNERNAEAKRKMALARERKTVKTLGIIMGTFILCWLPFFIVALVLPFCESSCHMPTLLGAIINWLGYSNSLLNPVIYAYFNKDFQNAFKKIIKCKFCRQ

[13] = target: D(3) dopamine receptor (Homo sapiens) (UniProt P35462); assay: Inhibition of dopamine D3 receptor at 10 uM
Sequence of D(3) dopamine receptor (Homo sapiens) (P35462 whole entry): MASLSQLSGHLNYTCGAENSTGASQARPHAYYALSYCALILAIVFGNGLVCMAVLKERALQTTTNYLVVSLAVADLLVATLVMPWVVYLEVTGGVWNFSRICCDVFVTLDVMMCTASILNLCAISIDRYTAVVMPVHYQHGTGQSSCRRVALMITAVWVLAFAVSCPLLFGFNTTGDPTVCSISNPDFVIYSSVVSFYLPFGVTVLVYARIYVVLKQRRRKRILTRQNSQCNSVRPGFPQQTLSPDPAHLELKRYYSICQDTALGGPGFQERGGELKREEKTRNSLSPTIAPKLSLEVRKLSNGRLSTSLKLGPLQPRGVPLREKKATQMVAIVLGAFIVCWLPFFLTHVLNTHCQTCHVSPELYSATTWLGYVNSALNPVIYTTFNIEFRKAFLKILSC

[14] = target: Sodium-dependent serotonin transporter (Homo sapiens) (UniProt P31645); assay: Inhibition of SERT at 10 uM
Sequence of Sodium-dependent serotonin transporter (Homo sapiens) (P31645 whole entry, looked up): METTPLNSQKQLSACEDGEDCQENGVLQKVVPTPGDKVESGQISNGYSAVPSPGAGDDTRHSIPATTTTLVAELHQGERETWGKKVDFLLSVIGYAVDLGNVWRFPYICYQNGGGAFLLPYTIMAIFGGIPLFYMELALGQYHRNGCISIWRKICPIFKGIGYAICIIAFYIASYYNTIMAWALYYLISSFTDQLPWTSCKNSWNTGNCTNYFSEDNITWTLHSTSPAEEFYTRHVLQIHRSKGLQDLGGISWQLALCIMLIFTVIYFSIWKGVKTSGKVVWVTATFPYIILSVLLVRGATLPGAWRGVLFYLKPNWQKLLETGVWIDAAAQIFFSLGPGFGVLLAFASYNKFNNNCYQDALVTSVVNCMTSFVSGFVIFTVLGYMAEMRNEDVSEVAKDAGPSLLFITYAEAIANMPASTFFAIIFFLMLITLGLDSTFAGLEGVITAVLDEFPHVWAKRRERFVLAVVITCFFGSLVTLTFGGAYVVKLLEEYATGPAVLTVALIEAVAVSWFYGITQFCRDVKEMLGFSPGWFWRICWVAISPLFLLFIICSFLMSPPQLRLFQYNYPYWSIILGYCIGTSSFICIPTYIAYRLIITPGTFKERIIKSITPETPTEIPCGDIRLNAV

[15] = target: 5-hydroxytryptamine receptor 7 (Homo sapiens) (UniProt P34969); assay: Inhibition of 5HT7 receptor at 10 uM
[16] = target: Histamine H1 receptor (Homo sapiens) (UniProt P35367); assay: Inhibition of histamine H1 receptor at 10 uM
[17] = target: T3, 5-hydroxytryptamine receptor 2C (Homo sapiens); assay: Inhibition of 5HT2C receptor at 10 uM
[18] = target: 5-hydroxytryptamine receptor 4 (Homo sapiens) (UniProt Q13639); assay: Inhibition of 5HT4 receptor at 10 uM
Sequence of 5-hydroxytryptamine receptor 4 (Homo sapiens) (Q13639 whole entry): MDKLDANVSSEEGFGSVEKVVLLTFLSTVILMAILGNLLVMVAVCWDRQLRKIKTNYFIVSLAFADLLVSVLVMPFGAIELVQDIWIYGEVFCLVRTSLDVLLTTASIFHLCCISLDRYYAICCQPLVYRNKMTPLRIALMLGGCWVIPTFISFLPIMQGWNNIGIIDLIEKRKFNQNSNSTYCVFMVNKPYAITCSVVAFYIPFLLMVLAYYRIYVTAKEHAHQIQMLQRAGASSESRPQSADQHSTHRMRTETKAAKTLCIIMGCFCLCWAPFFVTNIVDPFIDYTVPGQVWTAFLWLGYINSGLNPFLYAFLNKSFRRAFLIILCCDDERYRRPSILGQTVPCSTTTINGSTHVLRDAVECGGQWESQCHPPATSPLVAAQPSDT

[19] = target: T2, 5-hydroxytryptamine receptor 2A; assay: Binding affinity at 5HT2A receptor at 1 uM

T1 sequence (P50406 whole entry): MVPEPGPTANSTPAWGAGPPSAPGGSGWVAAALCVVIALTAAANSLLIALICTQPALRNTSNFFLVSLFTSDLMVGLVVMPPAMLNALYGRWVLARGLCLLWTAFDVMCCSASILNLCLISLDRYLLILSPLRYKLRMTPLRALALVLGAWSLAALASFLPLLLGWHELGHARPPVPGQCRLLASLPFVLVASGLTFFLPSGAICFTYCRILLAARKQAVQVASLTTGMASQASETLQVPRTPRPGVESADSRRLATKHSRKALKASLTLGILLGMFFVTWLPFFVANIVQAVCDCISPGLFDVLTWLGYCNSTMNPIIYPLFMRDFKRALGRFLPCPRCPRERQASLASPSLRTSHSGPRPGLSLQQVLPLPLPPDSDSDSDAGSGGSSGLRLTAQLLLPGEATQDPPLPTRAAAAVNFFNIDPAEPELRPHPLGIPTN

COc1ccc(CCNc2cc(N3CCN(C)CC3)ccc2[N+](=O)[O-])cc1OC
Activity [1]: 24%

COC(=O)c1cc(N2CCN(C)CC2)ccc1NCc1ccccc1
Ki [2]: 1890 nM

CN1CCN(c2ccc(OCc3ccccc3)c(NCc3ccccc3)c2)CC1
Ki [2]: 928 nM

CN1CCN(c2ccc(C#N)c(NCc3ccco3)c2)CC1
Ki [2]: 1360 nM

COc1ccc(CCNc2cc(N3CCNCC3)ccc2[N+](=O)[O-])cc1OC
Activity [1]: 59%

CN1CCN(c2ccc([N+](=O)[O-])c(NCc3ccccc3)c2)CC1
Activity [1]: 74%

CN1CCN(c2ccc(C(=O)O)c(NCc3ccccc3)c2)CC1
Activity [1]: 49%

Cc1ccc(OCCNc2cc(N3CCN(C)CC3)ccc2[N+](=O)[O-])cc1C
Activity [1]: 67%

CC(Nc1cc(N2CCNCC2)ccc1[N+](=O)[O-])c1ccccc1 (centres undefined)
Activity [1]: 13%

CN1CCN(c2ccc(NCc3ccccc3)c(C(=O)O)c2)CC1
Activity [1]: 37%

CN1CCN(c2ccc(C#N)c(NCc3ccccc3)c2)CC1
Ki [3]: 47 nM
inhibition [4]: 72%
inhibition [5]: 52%
inhibition [6]: 68%
inhibition [7]: 65%

CN1CCN(c2ccc([N+](=O)[O-])c(-n3nc(-c4ccccc4)c4ccccc4c3=O)c2)CC1
Ki [2]: 1220 nM

CN1CCN(c2ccc(NCc3ccccc3)c([N+](=O)[O-])c2)CC1
Activity [1]: 64%

CN1CCN(c2ccc([N+](=O)[O-])c(NCCc3ccccc3)c2)CC1
Ki ([2]; hek293): 119 nM

COc1cccc(OCCNc2cc(N3CCN(C)CC3)ccc2[N+](=O)[O-])c1
Activity [1]: 22%

Cc1cccc(OCCNc2cc(N3CCN(C)CC3)ccc2[N+](=O)[O-])c1
Activity [1]: 10%

CN1CCN(c2ccc([N+](=O)[O-])c(-n3ncccc3=O)c2)CC1
Activity [1]: 24%

CN1CCN(c2ccc([N+](=O)[O-])c(Oc3ccccc3)c2)CC1
Ki [2]: 27 nM

COc1ccc(N2CCN(C)CC2)cc1NCc1ccco1
Activity [1]: 53%

CN1CCN(c2ccc([N+](=O)[O-])c(NCc3ccco3)c2)CC1
inhibition [8]: < 40%
inhibition [9]: < 40%
inhibition [10]: > 90%
inhibition [11]: 61%
inhibition [12]: 61%
inhibition [13]: > 90%
inhibition [14]: > 90%
inhibition [15]: 61%
inhibition [16]: > 90%
inhibition [17]: > 90%
inhibition [18]: < 40%

CC(=O)Nc1cc(N2CCN(C)CC2)ccc1N(Cc1ccccc1)C(C)=O
Activity [2]: inactive

COc1ccc(N2CCN(C)CC2)cc1NCCc1ccccc1
Ki [2]: 1010 nM

CN1CCN(c2ccc([N+](=O)[O-])c(NCCn3cccc3)c2)CC1
Activity [1]: 78%

CN1CCN(c2ccc(C(=O)O)c(NCc3ccco3)c2)CC1
Activity [2]: inactive

O=[N+]([O-])c1ccc(N2CCNCC2)cc1NCc1ccc(Cl)cc1
Ki [2]: 8 nM

CN1CCN(c2ccc(C(=O)O)c(NCCc3ccccc3)c2)CC1
Activity [2]: inactive

COC(=O)c1ccc(N2CCN(C)CC2)cc1NCc1ccco1
Activity [1]: 31%

O=[N+]([O-])c1ccc(N2CCNCC2)cc1NCc1ccccc1
Ki [2]: 28 nM

COC(=O)c1ccc(N2CCN(C)CC2)cc1NCc1ccccc1
Activity [1]: 72%

CN1CCN(c2ccc(NS(=O)(=O)c3ccccc3)c(NCc3ccccc3)c2)CC1
inhibition [4]: 14%
inhibition [19]: 61%
inhibition [5]: 6%
inhibition [6]: 63%
inhibition [7]: 2%

COc1cc(N2CCN(C)CC2)ccc1NCc1ccccc1
Activity [1]: 49%

CN(C)CCc1c[nH]c2ccc(NS(=O)(=O)c3ccc4c(Cl)cccc4c3)cc12
Ki [2]: 0.7 nM

CN1CCN(c2ccc([N+](=O)[O-])c(N(C)C(=O)c3ccccc3)c2)CC1
Activity [1]: 49%

CN1CCN(c2ccc([N+](=O)[O-])c(NCCOc3ccc(Cl)cc3)c2)CC1
Activity [1]: 21%

NCCNc1ccc([N+](=O)[O-])c(NCc2ccccc2)c1
Ki [2]: 1490 nM

CN1CCN(c2ccc([N+](=O)[O-])c(NC(=O)c3ccccc3)c2)CC1
Activity [2]: inactive
